Results: patent US9862711B2, “Pyrazine derivatives as phosphatidylinositol 3-kinase inhibitors” (NOVARTIS AG, priority 2014, dated 2018)

Experiments:
PI 3-kinase gamma = PI 3-kinase gamma (Homo sapiens (Human), UniProt P48736); assay: TR-FRET Adapta assay (Assay E); assay type: biochemical; conditions: read-out: Assay E PI3Kγ IC50
From the text: (§1) TR-FRET Adapta Assay for PI 3-Kinase Gamma (E), PI 3-Kinase Delta (F)
(§2) The TR-FRET Adapta™ Universal Kinase Assay Kit was purchased from Invitrogen Corporation (Carlsbad/CA, USA) (Cat. No. PV5099). The kit contains the following reagents: Adapta Eu-anti-ADP Antibody (Europium labeled anti-ADP antibody in HEPES buffered saline, Cat. No. PV5097), Alexa Fluor® 647-labeled ADP tracer (Alexa Fluor® 647-labeled ADP tracer in HEPES buffered saline, Cat. No. PV5098), TR-FRET dilution buffer pH 7.5 (Cat. No. PV3574). PIK3CD substrate phosphatidylinositol (PI) was obtained from Invitrogen (vesicules consisting of 2 mM phosphatidylinositol (PI) in 50 mM HEPES pH7.5; Cat. No. PV5371). PIK3CG substrate phosphatidylinositol-4,5-bisphosphate (PIP(4,5)2 was obtained from Invitrogen (PIP2:PS large unilamellar vesicules consisting of 1 mM PIP2: 19 mM PS in 50 mM HEPES pH7.5, 3 mM MgCl2, 1 mM EGTA; Cat. No. PV5100).
(§3) Time-Resolved Fluorescence Resonance Energy Transfer (TR-FRET) is a technology based on energy transfer between two adjacent dyes, from an excited electron in one dye (the donor) to an electron of an adjacent dye (the acceptor) through resonance, then released as a photon. This energy transfer is detected by an increase in the fluorescence emission of the acceptor, and a decrease in the fluorescence emission of the donor. TR-FRET assays for protein kinases use a long-lifetime lanthanide Terbium or Europium chelates as the donor species which overcome interference from compound autofluorescence or light scatter from precipitated compounds, by introducing a delay after excitation by a flashlamp excitation source. Results are often expressed as a ratio of the intensities of the acceptor and donor fluorophores. The ratiometric nature of such a value corrects for differences in assay volumes between wells, as well as corrects for quenching effects due to colored compounds. The Adapta™ assay can be divided into two phases: a kinase reaction phase and an ADP detection phase. In the kinase reaction phase, all kinase reaction components are added to the well and the reaction is allowed to incubate for a set period of time specific for each kinase. After the reaction, a detection solution of Eu-labeled anti-ADP antibody, Alexa Fluor® 647-labeled ADP tracer, and EDTA (to stop the kinase reaction) are added to the assay well. ADP formed by the kinase reaction will displace the Alexa Fluor® 647-labeled ADP tracer from the antibody, resulting in a decrease in TR-FRET signal. In the presence of an inhibitor, the amount of ADP formed by the kinase reaction is reduced, and the resulting intact antibodytracer interaction maintains a high TR-FRET signal. In the Adapta™ assay, the donor (Europium-anti-ADP antibody) is excited at 340 nm and will transfer its energy to the acceptor (Alexa Fluor® 647-labeled ADP tracer). The emission from the Alexa Fluor® 647 can be monitored with a filter centered at 665 nm because it is located between the emission peaks of the donor, which is measured at 615/620 nm. 50 nL of compound dilutions were dispensed onto white 384-well small volume polystyrene plate. Then 5 μL of either PI 3-kinase gamma or PI 3-kinase delta and lipid substrate (P1 or PIP2:PS) followed by 5 μL of ATP (final assay volume 10 μL) are incubated at RT. The standard reaction buffer for the Adapta™ TR-FRET assay contained 10 mM Tris-HCl pH 7.5, 3 mM MgCl2, 50 mM NaCl, 1 mM DTT, 0.05% CHAPS ((3-[(3-cholamidopropyl)dimethylammonio]-1-propanesulfonate). Reactions were stopped with 5 μL of a mixture of EDTA containing the Eu-labeled anti-ADP antibody and the Alexa Fluor® 647-labeled ADP tracer in TR-FRET dilution buffer. Plates are read 15 to 60 mins later in a Synergy2 reader using an integration time of 0.4 seconds and a delay of 0.05 seconds. Control for the 100% inhibition of the kinase reaction was performed by replacing the PI 3-kinase by the standard reaction buffer. […]

PI 3-kinase delta = PI 3-kinase delta (Homo sapiens (Human), UniProt O00329); assay: TR-FRET Adapta assay (Assay F); assay type: biochemical; conditions: read-out: Assay F PI3Kδ IC50
Sequence of PI 3-kinase delta (O00329 2-1044): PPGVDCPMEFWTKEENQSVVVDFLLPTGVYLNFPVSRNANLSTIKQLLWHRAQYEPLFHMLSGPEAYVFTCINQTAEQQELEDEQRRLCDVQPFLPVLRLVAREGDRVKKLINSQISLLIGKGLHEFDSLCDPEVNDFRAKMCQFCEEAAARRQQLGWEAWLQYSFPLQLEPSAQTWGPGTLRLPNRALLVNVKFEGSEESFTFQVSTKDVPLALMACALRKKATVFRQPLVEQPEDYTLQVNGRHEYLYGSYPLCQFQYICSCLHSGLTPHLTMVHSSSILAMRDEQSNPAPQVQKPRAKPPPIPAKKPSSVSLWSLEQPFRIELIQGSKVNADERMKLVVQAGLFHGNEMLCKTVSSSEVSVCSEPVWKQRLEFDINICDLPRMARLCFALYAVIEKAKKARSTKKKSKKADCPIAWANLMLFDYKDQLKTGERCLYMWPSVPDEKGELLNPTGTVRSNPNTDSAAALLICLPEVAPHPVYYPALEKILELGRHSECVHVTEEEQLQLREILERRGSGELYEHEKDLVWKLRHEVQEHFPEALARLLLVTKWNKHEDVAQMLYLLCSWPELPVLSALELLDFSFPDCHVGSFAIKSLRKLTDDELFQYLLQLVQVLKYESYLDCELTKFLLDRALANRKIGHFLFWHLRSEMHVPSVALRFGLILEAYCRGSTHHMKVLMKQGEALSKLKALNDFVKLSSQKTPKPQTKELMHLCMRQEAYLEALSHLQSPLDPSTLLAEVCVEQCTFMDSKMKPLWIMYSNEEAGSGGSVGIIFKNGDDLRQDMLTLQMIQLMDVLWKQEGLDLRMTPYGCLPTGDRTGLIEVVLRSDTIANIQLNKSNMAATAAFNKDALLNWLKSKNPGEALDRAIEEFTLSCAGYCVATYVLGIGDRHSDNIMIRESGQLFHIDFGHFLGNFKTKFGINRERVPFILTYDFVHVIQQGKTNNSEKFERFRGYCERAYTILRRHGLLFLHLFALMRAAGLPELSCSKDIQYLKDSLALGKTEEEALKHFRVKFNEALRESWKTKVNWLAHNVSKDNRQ
From the text: as §1, §2, §3

mTOR = mTOR (Homo sapiens (Human), UniProt P42345); assay: Lanthascreen kinase binding assay (Assay G); conditions: GST-mTOR, Tracer-314
From the text: Lanthascreen™ Kinase Binding Assay for mTOR (G)
Binding Assays are based on the binding and displacement of an Alexa Fluor® 647-labeled, ATP-competitive kinase inhibitors to the kinase of interest. Invitrogen's “Kinase Tracers” have been developed to address a wide range of kinase targets and are based on ATP-competitive kinase inhibitors, making them suitable for detection of any compounds that bind to the ATP site or to an allosteric site altering the conformation of the ATP site.
In the Lanthascreen™ kinase binding assay, the donor (Eu^3+-anti-GST (glutathione 5-transferase) antibody) is excited at 340 nm and will transfer its energy to the acceptor (Alexa Fluor® 647-labeled ATP-competitive kinase inhibitor=Tracer-314). The emission from the Tracer-314 (Alexa Fluor® 647 inhibitor) can be monitored with a filter centered at 665 nm because it is located between the emission peaks of the donor, which is measured at 615/620 nm. The binding of both, the Tracer-314 and Eu^3+-anti-GST antibody, to the kinase results in a high degree of FRET from the Eu^3+-donor fluorophore to the Alexa-Fluor® 647-acceptor fluorophore on the Tracer-314. Binding of an inhibitor to the kinase competes for binding with the tracer, resulting in a loss of FRET.
50 nL of compound dilutions were dispensed onto white 384-well small volume polystyrene plate. Then 5 μL of GST-mTOR and Europium-anti-GST antibody followed by 5 μL of tracer-314 (final assay volume 10 μL) are incubated at RT. The standard reaction buffer for the Lanthascreen™ kinase binding assay contained 50 mM HEPES pH 7.5, 5 mM MgCl2, 1 mM EGTA, 0.01% Pluronic F-127. Plates are read 60 mins later in a Synergy2 reader using an integration time of 0.2 microseconds and a delay of 0.1 microseconds.
To calculate the emission ratio, the signal emitted at 665 nm from the acceptor (Alexa Fluor® 647-labeled Tracer-314) is divided by the signal emitted at 620 nm from the donor (Eu^3+ anti-GST antibody).
Control for the 0% inhibition was given by the solvent vehicle of the compounds (90% DMSO in H2O). Control for the relative 100% inhibition was performed by adding 10 μM in the mix containing GST-mTOR and Europium anti-GST antibody. An additional control for the absolute 0% inhibition is given by Eu^3+ anti-GST antibody without GST-mTOR. Standard compounds for the lipid kinase panel profiling were used as a reference and included in all assay plates in the form of 8 dilution points.

Sequence of PI 3-kinase gamma (P48736 whole entry): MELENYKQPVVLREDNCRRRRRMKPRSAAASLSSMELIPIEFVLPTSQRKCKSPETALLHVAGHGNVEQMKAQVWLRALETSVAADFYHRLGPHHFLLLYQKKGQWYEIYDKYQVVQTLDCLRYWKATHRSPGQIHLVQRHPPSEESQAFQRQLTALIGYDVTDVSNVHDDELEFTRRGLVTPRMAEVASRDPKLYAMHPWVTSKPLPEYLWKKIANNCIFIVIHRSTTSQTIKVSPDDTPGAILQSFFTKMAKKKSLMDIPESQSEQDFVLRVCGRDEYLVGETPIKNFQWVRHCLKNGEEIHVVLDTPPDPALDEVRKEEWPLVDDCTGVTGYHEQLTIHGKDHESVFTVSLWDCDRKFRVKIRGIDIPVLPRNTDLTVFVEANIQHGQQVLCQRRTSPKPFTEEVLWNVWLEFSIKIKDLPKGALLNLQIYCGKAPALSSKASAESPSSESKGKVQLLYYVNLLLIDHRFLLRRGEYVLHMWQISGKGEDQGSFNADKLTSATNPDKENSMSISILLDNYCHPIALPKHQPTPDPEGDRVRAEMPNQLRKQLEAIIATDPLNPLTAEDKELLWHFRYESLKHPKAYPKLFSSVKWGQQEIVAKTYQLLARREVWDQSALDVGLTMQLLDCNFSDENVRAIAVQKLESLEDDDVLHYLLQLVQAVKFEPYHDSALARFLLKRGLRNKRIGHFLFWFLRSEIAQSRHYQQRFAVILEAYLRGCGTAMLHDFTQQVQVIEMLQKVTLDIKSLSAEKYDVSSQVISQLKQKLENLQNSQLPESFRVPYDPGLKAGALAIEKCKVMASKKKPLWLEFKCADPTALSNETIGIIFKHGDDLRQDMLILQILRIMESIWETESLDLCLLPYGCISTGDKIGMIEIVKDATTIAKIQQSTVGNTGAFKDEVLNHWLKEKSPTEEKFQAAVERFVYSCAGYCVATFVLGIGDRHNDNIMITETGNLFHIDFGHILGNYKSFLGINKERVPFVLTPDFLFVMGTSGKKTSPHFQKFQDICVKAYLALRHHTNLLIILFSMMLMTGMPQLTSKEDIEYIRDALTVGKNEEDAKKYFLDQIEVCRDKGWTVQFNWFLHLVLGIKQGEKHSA

SMILES | IC50 (PI 3-kinase gamma) | IC50 (PI 3-kinase delta) | IC50 (mTOR)
Cc1ncc(-c2cncc(-c3cc(S(=O)(=O)NCCCO)ccc3C)n2)s1 [Example 1, N-(3-Hydroxy-propyl)-4-methyl-3-[6-(2-methyl-thiazol-5-yl)-pyrazin-2-yl]-benzenesulfonamide] | 22 nM | 200 nM | 5.25 µM
Cc1ccc(S(=O)(=O)NCC(C)(C)O)cc1-c1cncc(-c2cn(C)nc2C)n1 [Example 2, 3-[6-(1,3-Dimethyl-1H-pyrazol-4-yl)-pyrazin-2-yl]-N-(2-hydroxy-2-methyl-propyl)-4-methyl-benzenesulfonamide] | 19 nM | 60 nM | 1.18 µM
Cc1ccc(S(=O)(=O)NCCC(C)(C)O)cc1-c1cncc(-c2cn(C)nc2C)n1 [Example 3, 3-[6-(1,3-Dimethyl-1H-pyrazol-4-yl)-pyrazin-2-yl]-N-(3-hydroxy-3-methyl-butyl)-4-methyl-benzenesulfonamide] | 48 nM | 70 nM | 3.85 µM
Cc1ccc(S(=O)(=O)NCC2(C)COC2)cc1-c1cncc(-c2cn(C)nc2C)n1 [Example 4, Trans 3-[6-(1,3-Dimethyl-1H-pyrazol-4-yl)-pyrazin-2-yl]-4-methyl-N-(3-methyl-oxetan-3-ylmethyl)-benzenesulfonamide] | 14 nM | 70 nM | 0.89 µM
Cc1ncc(-c2cncc(-c3cc(S(=O)(=O)N[C@H]4CC[C@H](O)CC4)ccc3C)n2)s1 [Example 5, Trans N-(4-Hydroxycyclohexyl)-4-methyl-3-(6-(2-methylthiazol-5-yl)pyrazin-2-yl)benzenesulfonamide] | 15 nM | 90 nM | 4.77 µM
Cc1ccc(S(=O)(=O)NCC(C)(C)CO)cc1-c1cncc(-c2cn(C)nc2C)n1 [Example 8, 3-[6-(1,3-Dimethyl-1H-pyrazol-4-yl)-pyrazin-2-yl]-N-(3-hydroxy-2,2-dimethyl-propyl)-4-methyl-benzenesulfonamide] | 20 nM | 70 nM | 1.95 µM
Cc1ccc(S(=O)(=O)NCCC(C)(C)O)cc1-c1cncc(-c2cnn(CCN3CCOCC3)c2)n1 [Example 9, N-(3-Hydroxy-3-methyl-butyl)-4-methyl-3-{6-[1-(2-morpholin-4-yl-ethyl)-1H-pyrazol-4-yl]-pyrazin-2-yl}-benzenesulfonamide] | 160 nM | 10 nM | > 9.1 µM
Cc1ccc(S(=O)(=O)NCCC(C)(C)O)cc1-c1cncc(-c2cn(CCN3CCOCC3)nc2C)n1 [Example 10, N-(3-Hydroxy-3-methyl-butyl)-4-methyl-3-{6-[3-methyl-1-(2-morpholin-4-yl-ethyl)-1H-pyrazol-4-yl]-pyrazin-2-yl}-benzenesulfonamide] | 27 nM | 20 nM | 9.8 µM
Cc1ccc(S(=O)(=O)N[C@H]2CC[C@H](O)CC2)cc1-c1cncc(-c2cccnc2)n1 [Example 11, Trans N-(4-Hydroxy-cyclohexyl)-4-methyl-3-(6-pyridin-3-yl-pyrazin-2-yl)-benzenesulfonamide] | 88 nM | 120 nM | 6.24 µM
